{
  "source": "paper PMC8778670",
  "about": "“Identification of an Orally Bioavailable, Brain-Penetrant Compound with Selectivity for the Cannabinoid Type 2 Receptor” (Molecules, 2022)",
  "assay": "Stability studies under physiological pH",
  "format": "physicochemical",
  "conditions": "4k compared to 4q, data not reported",
  "data": [
    {"smiles": "O=C1c2ccc(Cl)cc2N/C(=N/N=C/c2cc3ccccc3s2)[C@@H]2CCCN12", "note": "[Compound 4k]", "values": [
      {"measurement": "tolerance under physiological pH (stability)", "result": "better tolerance"}
    ]}
  ]
}
